Measured values published in patent US7399777B2, “Diarylcycloalkyl derivatives, processes for their preparation and their use as pharmceuticals” (Sanofi-Aventis Deutschland GmbH, priority 2001, dated 2008).

Molecular target: T1, human PPARα (Homo sapiens, UniProt Q07869)
T1 construct: expressed in transfected cells; host or cells: HEK cells (human embryo kidney), stably transfected with pcDNA3-GR-GAL4-humanPPARα and the luciferase reporter pdeltaMG4LZ
T1 sequence (Q07869 167-468): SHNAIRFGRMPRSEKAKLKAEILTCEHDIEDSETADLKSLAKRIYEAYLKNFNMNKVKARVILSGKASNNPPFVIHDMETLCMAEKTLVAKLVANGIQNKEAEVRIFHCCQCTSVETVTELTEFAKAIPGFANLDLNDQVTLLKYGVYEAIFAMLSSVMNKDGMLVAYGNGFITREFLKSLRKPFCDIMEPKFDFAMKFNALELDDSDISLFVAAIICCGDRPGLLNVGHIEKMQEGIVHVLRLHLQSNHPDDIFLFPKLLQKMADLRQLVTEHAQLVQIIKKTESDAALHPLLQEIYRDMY
Test: PPARα reporter cell line assay (stably transfected HEK cells, GR-GAL4-PPARα fusion protein, firefly luciferase reporter)
Assay type: cell-based
Details: agonist activity in HEK PPARα reporter cell line; 24 h incubation; luciferase luminescence
Text: To analyze the effectiveness of substances which bind to human PPARα, activating it in agonistic manner, a stable transfected HEK cell line (HEK=human embryo kidney) designated here as “PPARα reporter cell line” is used. It contains two genetic elements, a firefly luciferase reporter element and a PPARα fusion protein (GR-GAL4-PPARα) which controls the expression of the firefly luciferase reporter element in a PPARα ligand dependent way.
The PPARα reporter cell line was established in two steps: First, the firefly luciferase reporter element was constructed and stably transfected into HEK cells. Five DNA binding sites for the yeast transcription factor GAL4 (five repetitions of the sequence 5′-CGGAGTACTGTCCTCCGAG-3′) (SEQ ID NO:1) were cloned 5′ upstream of a 68 bp minimal RNA polymerase II promoter from the GR mouse mammary tumor virus long terminal repeat (accession # V01175) providing a CCAAT-box as well as a TATA-element. Cloning and sequencing was done as described by Sambrook J. et. al. (Molecular cloning, Cold Spring Harbor Laboratory Press, 1989). The complete Photinus pyralis luciferase gene (accession # M 15077) was cloned 3′ downstream of the GAL4 binding sites and the MMTV minimal promoter. The firefly luciferase reporter element consisting of 5 GAL4 binding sites, the MMTV minimal promoter and the full length luciferase gene was recloned into a plasmid backbone harboring a Zeozin resistence gene leading to plasmid “pdeltaMG4LZ”. This vector was transfected in HEK cells as described by Ausubel, F. M. et al. (Current protocols in molecular biology, Vol. 1-3, John Wiley & Sons, Inc., 1995). Stable clones have been selected using Zeozin as a selection agent (0.5 mg/ml).
In a second step, the PPARα fusion protein (GR-GAL4-PPARα) that controls expression of the firefly luciferase reporter element, was stably integrated in this cell background. For this purpose the cDNAs coding for the N-terminal 76 amino acids of the human glucocorticoid receptor (“GR”, accession # P04150) have been linked to amino acids 1-147 of the yeast GAL4-protein (accession # P04386) followed by the ligand binding domain of humanPPARα (amino acids S167-Y468, accession # S74349). The GR-GAL4-human PPARα construct was cloned into plasmid pcDNA3 (Invitrogen) were its expression is driven constitutively by the Cytomegalovirus promoter. The plasmid pcDNA3-GR-GAL4-humanPPARα was transfected in a stable HEK-cell clone that already contained the firefly luciferase reporter element described above. A double-transfected cell line containing both, the firefly luciferase reporter element as well as the GR-GAL4-humanPPARα fusion protein, has been selected on medium supplemented with Zeozin (0.5 mg/ml) and G418 (0.5 mg/ml).
The activity of PPARα agonists is determined in a three day test, described below:
The PPARα reporter cell line is cultivated up to 80% confluence in DMEM medium (# 41965-039, Life Technologies) with the following additives: 10% cs-FCS (fetal calf serum, #SH-30068.03, Hyclone), antibiotics (0.5 mg/ml of zeozin [#R250-01, Invitrogen], 0.5 mg/ml of G418 [#10131-019, Life Technologies], 1% penicillin streptomycin solution [#15140-031, Life Technologies]) and 2 mM of L-glutamine (#25030-032, Life Technologies). Cultivation is carried out in standard cell culture bottles (# 33111, Becton Dickinson) in a cell culture incubator at 37° C. and 5% CO2. The 80% confluent cells are washed once with 30 ml of PBS (#14190-094, Life Technologies), treated with 2 ml of trypsin solution (#25300-054, Life Technologies) at 37° C. for 2 min, taken up in 5 ml of the medium described above and counted in a cell counter. After dilution to 500,000 cells/ml, in each case 35,000 cells are sown into each well of a 96-well microtiter plate having a clear plastic bottom (#3610, Coming Costar). The plates are incubated in a cell incubator at 37° C. and 5% CO2 for 24 h.
The PPARα agonists to be tested are dissolved in DMSO at a concentration of 10 mM. […]

Row | EC50 [nM] | Structure (SMILES)
1 | 0.13 | Cc1cccc(CO[C@@H]2CCC[C@H](OCc3nc(-c4cccc(OC(F)(F)F)c4)oc3C)C2)c1C(=O)O [LVII, 2-{1R,3S-3-[2-(3-Trifluoromethoxyphenyl)-5-methyloxazol-4-ylmethoxy]cyclohexyloxymethyl}-6-methylbenzoic acid]
2 | 0.46 | COc1ccc(-c2nc(CO[C@H]3CCC[C@@H](OCc4cccc(C)c4C(=O)O)C3)c(C)o2)cc1OC [LVIII, 2-{1R,3S-3-[2-(3,4-Dimethoxyphenyl)-5-methyloxazol-4-ylmethoxy]cyclohexyloxymethyl}-6-methylbenzoic acid]
3 | 0.08 | Cc1ccc(-c2nc(CO[C@H]3CCC[C@@H](OCc4cccc(C)c4C(=O)O)C3)c(C)o2)cc1 [LXII, 2-Methyl-6-[1R,3S-3-(5-methyl-2-p-tolyloxazol-4-ylmethoxy)cyclohexyloxymethyl]benzoic acid]
4 | 0.56 | Cc1ccc(-c2nc(CO[C@@H]3CCC[C@H](OCc4cccc(C)c4C(=O)O)C3)c(C)o2)cc1 [LXIII, 2-Methyl-6-[1S,3R-3-(5-methyl-2-p-tolyloxazol-4-ylmethoxy)cyclohexyloxymethyl]benzoic acid]
5 | 0.13 | COc1ccc(-c2nc(CO[C@H]3CCC[C@@H](OCc4cccc(C)c4C(=O)O)C3)c(C)o2)cc1 [LXIV, 2-{1R,3S-3-[2-(4-Methoxyphenyl)-5-methyloxazol-4-ylmethoxy]cyclohexyloxymethyl}-6-methylbenzoic acid]
6 | 1.1 | COc1ccc(-c2nc(CO[C@@H]3CCC[C@H](OCc4cccc(C)c4C(=O)O)C3)c(C)o2)cc1 [LXV, 2-{1S,3R-3-[2-(4-Methoxyphenyl)-5-methyloxazol-4-ylmethoxy]cyclohexyloxymethyl}-6-methylbenzoic acid]
7 | 0.48 | Cc1cccc(CO[C@@H]2CCC[C@H](OCc3nc(-c4cccc(Br)c4)oc3C)C2)c1C(=O)O [LXVI, 2-{1R,3S-3-[2-(3-Bromophenyl)-5-methyloxazol-4-ylmethoxy]cyclohexyloxymethyl}-6-methylbenzoic acid]
8 | 0.28 | Cc1cccc(CO[C@@H]2CCC[C@H](OCc3nc(-c4ccc(OC(F)(F)F)cc4)oc3C)C2)c1C(=O)O [LXX, 2-methyl-6-[(1R,3S)-3-(5-methyl-2-(4-trifluoromethoxyphenyl)-oxazol-4-ylmethoxy)-cyclohexyloxymethyl]-benzoic acid]
9 | 0.24 | COc1ccc(-c2nc(CO[C@H]3CCC[C@@H](OCc4cccc(C)c4C(=O)O)C3)c(C)o2)cc1C [LXXII, 2-[(1R,3S)-3-(2-(4-methoxy-3-methylphenyl)-5-methyl-oxazol-4-ylmethoxy)-cyclohexyloxymethyl]-6-methyl-benzoic acid]
10 | 16 | Cc1cccc(COC2C=CC(OCc3coc(-c4ccc(F)cc4)n3)C2)c1C(=O)O (centres unmarked) [XIX, 2-{4-[2-(4-Fluorophenyl)oxazol-4-ylmethoxy]cyclopent-2-enyloxymethyl}-6-methylbenzoic acid]
11 | 0.25 | Cc1cccc(CO[C@@H]2CCC[C@H](OCc3nc(-c4cccc(F)c4)oc3C)C2)c1C(=O)O [XLVIII, 2-{1R,3S-3-[2-(3-Fluoro-phenyl)-5-methyl-oxazol-4-ylmethoxyl]-cyclohexyloxymethyl}-6-methylbenzoic acid]
